In PMC6539602, “Antioxidant and Photoprotective Activity of Apigenin and Its Potassium Salt Derivative in Human Keratinocytes and Absorption in Caco-2 Cell Monolayers” (International Journal of Molecular Sciences, 2019):

Assays:
[1] = Oxygen radical absorbance capacity (ORAC); format: biochemical; details: Trolox equivalents per millimole of compound; mean ± SD
Experimental: (§1) Three different methods were performed to determine the antioxidant capacity of both apigenins. The Trolox equivalent antioxidant capacity (TEAC) was performed, as previously reported to establish the ABTS^·+ scavenging ability of both compounds [21]. The TEAC of the samples was calculated from the standard curve of Trolox, and the results are expressed in micromoles of Trolox equivalents (TE) per millimole of compound. The ferric reducing antioxidant power (FRAP) assay was performed, as described elsewhere. The reduction of a ferric-tripyridyltriazine complex was estimated, and the results are expressed in micromoles of Fe^2+ per millimole of compound. To assay the capacity of the compounds to scavenge peroxyl radicals, a validated assay of the oxygen radical absorbance capacity (ORAC) method was used. The ORAC assay was carried out on a microplate reader (POLAstar Omega, BMG LabTech GmbH, Offenburg, Germany) with 495 nm excitation and 520 nm emission filters to monitor fluorescein oxidation. The results are expressed in micromoles of TE per millimole of compound.

Caco-2 cell monolayer = test system: Caco-2 cell monolayer; parameters: method as in PMID 29186068; details: Caco-2 cell model; cited from earlier work
[2] = Trolox equivalent antioxidant capacity (TEAC); format: biochemical; details: Trolox equivalents per millimole of compound; mean ± SD
Experimental: as §1

[3] = Caco-2 cell monolayer bidirectional permeability; format: in vitro ADME; details: human
Experimental: The cells were seeded into 6-well inserts with a polyethylene terephthalate (PET) membrane (pore size of 0.4 µm) (BD Falcon) at a density of 1.0 × 10^5 cells. Cell culture was maintained at 37 °C under 90% humidity and 5% CO2. The medium was replaced every 2–3 days for both the apical (AP) and basolateral (BL) chambers of the transwell filters. Cell monolayers were used 19–21 days after seeding, once confluence and differentiation were achieved. To check the integrity of each cell monolayer, the transepithelial electrical resistance (TEER) was measured before and after the experiments with an epithelial voltohmmeter (Millicell-ERS®). Permeability studies were performed by adding apigenin and apigenin-K at a concentration of 50 µM dissolved in HBSS medium (pH 7.4). The transport experiment was initiated by removing the culture medium from the AP and BL chambers. HBSS medium was prewarmed to wash the Caco-2 monolayers twice and, subsequently, to incubate the monolayers for 30 min at 37 °C. Afterwards, the test compounds were added to the apical (AP) or basolateral (BL) chambers to perform bidirectional permeability studies, while the receiving chamber contained the corresponding volume of HBSS. The six-well plate containing the cell monolayers was put into an orbital environmental shaker, which was set at a constant temperature (37 °C) and agitation rate (54 rpm) for the duration of the permeability experiments. […] The apparent permeability (Papp) values for each compound and direction can be calculated according to the following equation:(2) Papp= dQ/dt×1/A×C0×60 where Papp is the apparent permeability (cm/s), dQ/dt is the steady state flux, A is the diffusion area of the membrane (cm^2), C0 is the initial compound concentration in the donor compartment (µM) and 60 is a conversion factor [54]. […] In addition, the efflux ratio (ER) was calculated to determine the absorption mechanism, such as the ratio of Papp (BL-AP) to Papp (AP-BL). (3) ER= Papp (BL-AP)/Papp (AP-BL) The analyses of the samples from the permeability assay were analyzed via a high-performance liquid chromatograph Agilent LC 1100 series (Agilent Technologies, Inc., Palo Alto, CA, USA) controlled by the ChemStation software and equipped with a pump, autosampler, column oven and UV-Vis diode array detector. The samples were separated on a Poroshell 120 SB-C18 column (2.7 µm, 4.6 × 150 mm) after each 10 µL injection and were monitored at 280 nm. […] Quantitative evaluations of the apigenin or apigenin-K concentration were performed using the corresponding calibration graph of each compound with a six-point regression curve (r^2 > 0.999).

[4] = Ferric reducing antioxidant power (FRAP); format: biochemical; details: mean ± SD
Experimental: as §1

**Q.** For `O=c1cc(-c2ccc(O)cc2)oc2cc(O)cc(O)c12` [Apigenin, 4′,5,7-trihydroxyflavone], which ORAC [1] is on record?
**A.** 887.9 ± 5.8 µmol TE/mmol

**Q.** And the “apparent permeability relative to its flavonol kaempferol” value (Caco-2 cell monolayer)?
**A.** 2.5 fold

**Q.** And the TEAC [2]?
**A.** 2022.2 ± 154.8 µmol TE/mmol

**Q.** What about the efflux ratio at 120 min, 50 µM ([3]; Caco-2, pH 7.4, Papp (BL-AP)/Papp (AP-BL)) of the same compound?
**A.** 0.51

**Q.** What about the Papp A→B at 120 min, 50 µM ([3]; Caco-2, apical-to-basolateral, 50 µM, HBSS pH 7.4, 120 min, mean of 6 replicates ± SD) of the same compound?
**A.** 18.1 ± 1.7 ×10⁻⁶ cm/s

**Q.** What about the Papp B→A at 120 min, 50 µM ([3]; Caco-2, basolateral-to-apical, 50 µM, HBSS pH 7.4, 120 min, mean of 6 replicates ± SD) of the same compound?
**A.** 9.3 ± 1.3 ×10⁻⁶ cm/s

**Q.** And the Papp at 120 min, 50 µM ([3]; pH 7.4, Caco-2 cell model, read-out: apparent permeability (Papp))?
**A.** 18.1 ×10⁻⁶ cm/s

**Q.** And the FRAP [4]?
**A.** 113.2 ± 12.2 µmol Fe^2+/mmol
